Reference: patent US20080057529A1, “Method for Identifying Histone Deacetylase Inhibitors” (priority 2003, published 2008)
pEC50: −log10 of the molar value. Where two headings read alike, the source gives them in different places. Each block holds one molecule with its values, some of them ahead of it.

How the values were obtained:
Type in all cases: cell-based, human
endogenous p21 = experiment: Induction of endogenous p21 in HeLa cells, immunoblot; conditions: 13 hour treatment, immunoblot densitometry, read-out: Endogenous p2 EC50
Experimental: (§1) Induction of endogenous p21 and acetylation of core histones (inhibition of HDAC activity) was as follows. Dose-response experiments were performed in HeLa cells with different classes of known HDAC inhibitors. […] An α-tubulin-specific antibody (Sigma, St. Louis, Mo.; catalog number: T9026) was used as an internal standard. Quantitative data were obtained by densitometric analysis of X-ray films and were normalized for the internal standard values.

p21 minimal promoter = experiment: Fluorometric β-lactamase activity assay in stable HeLa clone 1.17 (p21m-BLA); conditions: read-out: p21m-Bla EC50
Experimental: All clones were screened for the presence of stably and functional integrated copies of the p21m-BLA reporter gene transcription cassette by performing a fluorometric β-lactamase activity assay after treatment with the HDAC inhibitor Apicidin at a concentration of 1 μM (saturating dose representing 100% of Bla gene activation, i.e., 100% of HDAC inhibition). A 100 μL aliquot of cells for each stable transformant in complete DMEM was plated into a well of a 96 well plate at about 36,000 cells per well for treatment with 1 μM Apicidin (saturating dose) and a 100 μL aliquot of cells was plated into a well of a 96 well plate at 24,000 cells per well for treatment with DMSO (vehicle control). […] After 4 hours, 25 μL of complete DMEM containing Apicidin at 5× final concentration or DMSO (5%) was added to each of the wells. The cells were then grown at 37° C., 5% CO2 for about 12 to 16 hours. Afterwards, the medium was removed and 100 μL of DMEM without serum and 25 μL of FRET labeled CCF2-AM Bla substrate diluted in the appropriate buffer according to the manufacturer recommendations were each added to the cells to give a final concentration of 1 μM CCF2-AM.

[1] = test system: HDAC activity (acetylated histone H3); experiment: Acetylation of core histones (inhibition of HDAC activity) in HeLa cells, acetylated histone H3 immunoblot; conditions: Homo sapiens; HeLa cells, 13 hour treatment, immunoblot densitometry; read-out: AcH3 EC50
Experimental: as §1

- pEC50 (endogenous p21): 4.66
- pEC50 (p21 minimal promoter; clone 1.17, about 13 hours treatment, means of 3 to 4 independent experiments): 4.92
Compound: Nc1ccccc1NC(=O)c1ccc(CNC(=O)OCc2cccnc2)cc1 [MS27-275]

Compound: CCCC(=O)[O-].[Na+] [Na-butyrate, sodium butyrate]
- pEC50 (p21 minimal promoter; Homo sapiens, HeLa, 13 h): 2.70

- pEC50 [1]: 6.10
Compound: O=C(CCCCCCC(=O)Nc1ccccc1)NO [SAHA, suberoylanilide hydroxamic acid]
